Measured values published in patent US12728186B2, “Methods and kits for preparing pathogen-inactivated whole blood” (priority 2018, dated 2026).
“And” between values parts separate entries of the source, which are not always exact repeats. Equal entries are not always repeated.

Experiment: Residual unreacted amustaline by LCMS, Example 4 (1-, 2- or 3-container kits)
Type: physicochemical
Conditions: for Residual amustaline levels in pathogen-inactivated whole blood, 20 hr / Residual amustaline levels in pathogen-inactivated whole blood, 22 hr / Residual amustaline levels in pathogen-inactivated whole blood, 24 hr / Residual amustaline levels in pathogen-inactivated whole blood, 26 hr: 22° C.
Experimental: Another study was performed to evaluate the preparation of pathogen-inactivated whole blood using amustaline and GSH, in 1-container, 2-container or 3-container kits of the present disclosure. Six ABO-matched whole blood units in anticoagulant were pooled and split into seven units of ~450 mL. The seven whole blood units were subjected to pathogen inactivation under one of three conditions—with no transfer step between containers, one transfer step between two containers, or two transfer steps between three containers (Table 5). Amustaline and GSH were added to the whole blood units by sterile docking of a filter set as previously described to the tubing of an input port of the first container that contained the whole blood. Unit 1 was treated with amustaline and GSH at 0.2 mM and 2.0 mM final concentrations, respectively, in the first container and incubated at 22° C., with samples taken at 20, 22, 24 and 26 hours, with no further container transfers. For units 2-4, amustaline and GSH were added to the whole blood (0.2 mM and 2.0 mM final concentrations, respectively) in the first container and incubated at 22° C. for 20 hours. A sample was taken at 20 hours, along with transfer to a second bag and further incubation at 22° C., with additional sampling at 2 hour intervals (22, 24 and 26 hr). For units 5-7, amustaline and GSH were added to the whole blood (0.2 mM and 2.0 mM final concentrations, respectively) in the first container and the mixture transferred to a second container, followed by incubation at 22° C. for 20 hours. A sample was taken at 20 hours, along with transfer to a third bag and further incubation at 22° C., with additional sampling at 2 hour intervals (22, 24 and 26 hr).
Samples were analyzed by LCMS to determine the level of residual, unreacted amustaline as previously described.

[1] = Unit 1, no transfer (1 bag kit)
[2] = Units 2-4, 1x transfer (2 bag kit), to second bag at 20 hr
[3] = Units 5-7, 2x transfer (3 bag kit), second container after addition, third bag at 20 hr

O=C(CCNc1c2ccccc2nc2ccccc12)OCCN(CCCl)CCCl [amustaline]
level of amustaline after PI processing, 2-container and 3-container kits (2-container and 3-container kits, after transfer at 20 hr): below the limit of quantitation | Residual amustaline levels in pathogen-inactivated whole blood, 20 hr (20 hr (at transfer to third bag), Units 5-7, 2x transfer (3 bag kit), second container after addition, third bag at 20 hr): 1.47 nM and 1.46 nM and 1.53 nM | Residual amustaline levels in pathogen-inactivated whole blood, 20 hr (20 hr (at transfer), Units 2-4, 1x transfer (2 bag kit), to second bag at 20 hr): 1.53 nM and 1.65 nM and 1.66 nM | Residual amustaline levels in pathogen-inactivated whole blood, 20 hr (20 hr, Unit 1, no transfer (1 bag kit)): 1.47 nM | Residual amustaline levels in pathogen-inactivated whole blood, 22 hr [1]: 1.54 nM | Residual amustaline levels in pathogen-inactivated whole blood, 22 hr [2]: BLOQ (BLOQ = Below Limit of Quantitation (e.g., < 0.75 nM)) | Residual amustaline levels in pathogen-inactivated whole blood, 22 hr [3]: BLOQ (BLOQ = Below Limit of Quantitation (e.g., < 0.75 nM)) | Residual amustaline levels in pathogen-inactivated whole blood, 24 hr [1]: 1.39 nM | Residual amustaline levels in pathogen-inactivated whole blood, 24 hr [2]: BLOQ (BLOQ = Below Limit of Quantitation (e.g., < 0.75 nM)) | Residual amustaline levels in pathogen-inactivated whole blood, 24 hr [3]: BLOQ (BLOQ = Below Limit of Quantitation (e.g., < 0.75 nM)) | Residual amustaline levels in pathogen-inactivated whole blood, 26 hr [1]: 1.32 nM | Residual amustaline levels in pathogen-inactivated whole blood, 26 hr [2]: BLOQ (BLOQ = Below Limit of Quantitation (e.g., < 0.75 nM)) | Residual amustaline levels in pathogen-inactivated whole blood, 26 hr [3]: BLOQ (BLOQ = Below Limit of Quantitation (e.g., < 0.75 nM))
